From US7872128B2, “Benzisoxazole and isoxazolo-pyridine compounds and method of use” (Amgen Inc., priority 2006, dated 2011)

Assays:
[1] = system: SCF or GM-CSF-stimulated UT-7 cells; experiment: SCF and GM-CSF stimulated UT7 proliferation/survival assay; format: cell-based; settings: Homo sapiens, UT7, 72 h, 3 days, ATP readout
Source text: SCF and GM-CSF Stimulated UT7 Proliferation/Survival Assay:
The purpose of this assay is to test the general anti-proliferative/cytotoxic effect of small molecule compounds on SCF or GM-CSF-stimulated UT-7 cells. Preventing SCF stimulated proliferation/survival is consistent with an on-mechanism effect whereas inhibition of GM-CSF driven proliferation/survival is indicative of off-target effects. UT-7 is a factor dependent human megakaryoblastic leukemia cell line that can be grown in either IL-3, GM-CSF, EPO or SCF (these cells have been confirmed to carry wild type c-kit receptor). Cells are maintained in growth media (IMDM, 10% HI-FBS, 1×PGS, 1 ng/mL GM-CSF). To measure SCF or GM-CSF-induced proliferation, cells are washed and re-suspended to 5e4c/mL in assay media (RPMI 1640/4% HI-FBS, 1×PGS) and plated at 50 uL/well for 2500c/well. Small molecule compounds are first diluted in 100% DMSO, then diluted 1:4 in RT assay media. 5 Microliters of 11×SCF (55 ng/mL) or 11×GM-CSF (11 ng/mL) in assay media plus 1 μL of diluted drug are added to the cell plates. The treated cells are incubated in a 37° C. humidified incubator with 5% CO2 for 3 days. The amount of ATP is then measured as a surrogate marker for cell viability. This is accomplished by adding 50 μL of Perkin Elmer ATP 1 step reagent (as per instructed in the reagent manual, Cat. No. 6016739), incubating at RT for 15 min and reading the luminescence with a Perkin Elmer Topcount NXT™HTS (model c384) plate reader. The amount of SCF or GM-CSF stimulated viable cells in the presence of compound compared with in the presence of vehicle alone (HI control) is calculated using the formula: % control (POC)=(cpd−average LO)/(average HI−average LO)*100. Data (consisting of POC and inhibitor concentration in μM) is fitted to a 4-parameter equation (y=A+((B−A)/(1+((x/C)^D))), where A is the minimum y (POC) value, B is the maximum y (POC), C is the x (cpd concentration) at the point of inflection and D is the slope factor) using a Levenburg-Marquardt non-linear regression algorithm.

c-kit kinase enzyme = target: T1, c-kit kinase enzyme (Homo sapiens, UniProt P10721); experiment: C-kit Homogeneous Time Resolved Fluorescent (HTRF) kinase assay; format: biochemical; settings: read-out: average IC50 value, inhibition of the c-kit kinase enzyme
T1 construct: c-kit (6.25 μM) (catalytic domain, N-terminal GST tagged, unphosphorylated); GST (N)
T1 sequence (P10721 589-937 limits assumed): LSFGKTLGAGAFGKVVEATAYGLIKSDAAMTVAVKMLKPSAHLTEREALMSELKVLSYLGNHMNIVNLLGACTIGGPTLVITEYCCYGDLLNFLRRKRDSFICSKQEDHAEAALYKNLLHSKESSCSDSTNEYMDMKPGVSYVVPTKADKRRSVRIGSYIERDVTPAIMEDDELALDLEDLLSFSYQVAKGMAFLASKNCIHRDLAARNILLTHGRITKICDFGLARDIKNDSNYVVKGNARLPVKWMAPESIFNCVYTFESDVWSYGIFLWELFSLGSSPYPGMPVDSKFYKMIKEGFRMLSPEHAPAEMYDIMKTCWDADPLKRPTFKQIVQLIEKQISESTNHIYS
Description: C-kit-Homogeneous Time Resolved Fluorescent (HTRF) Kinase Assay:
The purpose of this assay is to measure the inhibition of c-kit enzyme activity (autophosphorylation and phosphorylation of substrate) by small molecule test compounds. The c-kit HTRF assay begins with c-kit-catalyzed phosphorylation of biotinylated peptide Her-2 (N-GGMEDIYFEFMGGKKK-C) in the presence of ATP. The c-kit enzyme reaction is comprised of 1 μL of compound in 100% DMSO, 15 μL of 2× substrate mix (50 μM ATP and 2 μM biotinylated Her-2) and 15 μL of 2× c-kit (6.25 μM) (catalytic domain, N-terminal GST tagged, unphosphorylated) in 4 mM DTT all diluted in enzyme buffer (25 mM HEPES pH 7.5, 12.5 mM NaCl, 50 mM MgCl, 0.05% BSA). The reaction incubates for 90 min at RT. 160 Microliters of detection mixture containing 0.47 μg/mL steptavidin allophycocyanin and 29.7 pM europylated anti-phosphotyrosine Ab (PT66, Perkin Elmer) in HTRF buffer (100 mM Hepes pH 7.5, 100 mM NaCl, 0.1% BSA, 0.05% Tween 20) is then added to stop the reaction, by diluting out the enzyme as well as to enable quantitation of phosphorylated Her-2. After 3 h at RT, the detection reaction is read in a Packard Discovery™ (model BD1000) plate reader. The wells are excited with coherent […] light and the ratio of delayed ([…] post excitation) emissions at […] (native europium fluorescence) and 665 nm (europium fluorescence transferred to allophycocyanin—an index of substrate phosphorylation) is determined. The proportion of substrate phosphorylated in the kinase reaction in the presence of compound compared with that phosphorylated in the presence of DMSO vehicle alone (HI control) is calculated using the formula: % control (POC)=(cpd−average LO)/(average HI—average LO)*100. Data (consisting of POC and inhibitor concentration in μM) is fitted to a 4-parameter equation (y=A+((B−A)/(1+((x/C)^D))), where A is the minimum y (POC) value, B is the maximum y (POC), C is the x (compound concentration) at the point of inflection and D is the slope factor) using a Levenburg-Marquardt non-linear regression algorithm.

IC50 (c-kit kinase enzyme)	SMILES	IC50 [1]
≤ 20 nM	O=C(Nc1cncnc1)c1c(Cl)ccc2c(Nc3ccc(F)c(C(F)(F)F)c3)noc12 [Example 10, 6-chloro-3-(4-fluoro-3-(trifluoromethyl)phenylamino)-N-(pyrimidin-5-yl)benzo[d]isoxazole-7-carboxamide]	
≤ 20 nM	O=C(Nc1cncnc1)c1c(Cl)ccc2c(Nc3ccc(OC(F)(F)F)cc3)noc12 [Example 15, 6-chloro-N-(pyrimidin-5-yl)-3-(4-(trifluoromethoxy)phenylamino)benzo[d]isoxazole-7-carboxamide]	
≤ 20 nM	CCCc1ccc(Nc2noc3c(C(=O)Nc4cncnc4)c(Cl)ccc23)cc1 [Example 17, 6-chloro-3-(4-propylphenylamino)-N-(pyrimidin-5-yl)benzo[d]isoxazole-7-carboxamide]	≤ 20 nM

Further lines, the compound ahead of its results:

SMILES	IC50 (c-kit kinase enzyme)	IC50 [1]
O=C(Nc1cncnc1)c1c(Cl)ccc2c(Nc3ccc(C(F)(F)F)cc3)noc12 [Example 5, 6-chloro-N-(pyrimidin-5-yl)-3-(4-(trifluoromethyl)phenylamino)benzo[d]isoxazole-7-carboxamide]		≤ 20 nM
O=C(Nc1cncnc1)c1c(Cl)ccc2c(Nc3cc(F)cc(C(F)(F)F)c3)noc12 [Example 12, 6-chloro-3-(3-fluoro-5-(trifluoromethyl)phenylamino)-N-(pyrimidin-5-yl)benzo[d]isoxazole-7-carboxamide]	≤ 20 nM	
CCCCc1ccc(Nc2noc3c(C(=O)Nc4cncnc4)c(Cl)ccc23)cc1 [Example 18, 3-(4-butylphenylamino)-6-chloro-N-(pyrimidin-5-yl)benzo[d]isoxazole-7-carboxamide]		≤ 20 nM
